ChEMBL document CHEMBL5321272 (J Med Chem, 2023)
Activity calls are given as the source filed them. The rule behind the calls is not given here.

Legend:
[1] = tested on: MV4-11; assay: cells; settings: Homo sapiens, MV4-11, 72 h
Description: Antiproliferative activity against human MV4-11 cells assessed as reduction in cell viability incubated for 72 hrs by CellTiter 96 Aqueous One Solution Cell Proliferation Assay

[2] = biological target: Receptor-type tyrosine-protein kinase FLT3 (Homo sapiens, UniProt P36888, D835Y)
Description: Inhibition of FLT3 D835Y mutant (unknown origin) using peptide substrate TK-S and ATP as substrate incubated for 1 hr by HTRF assay

[3] = biological target: T1, Serine/threonine-protein kinase Chk1 (Homo sapiens, UniProt O14757)
T1 sequence (O14757 whole entry): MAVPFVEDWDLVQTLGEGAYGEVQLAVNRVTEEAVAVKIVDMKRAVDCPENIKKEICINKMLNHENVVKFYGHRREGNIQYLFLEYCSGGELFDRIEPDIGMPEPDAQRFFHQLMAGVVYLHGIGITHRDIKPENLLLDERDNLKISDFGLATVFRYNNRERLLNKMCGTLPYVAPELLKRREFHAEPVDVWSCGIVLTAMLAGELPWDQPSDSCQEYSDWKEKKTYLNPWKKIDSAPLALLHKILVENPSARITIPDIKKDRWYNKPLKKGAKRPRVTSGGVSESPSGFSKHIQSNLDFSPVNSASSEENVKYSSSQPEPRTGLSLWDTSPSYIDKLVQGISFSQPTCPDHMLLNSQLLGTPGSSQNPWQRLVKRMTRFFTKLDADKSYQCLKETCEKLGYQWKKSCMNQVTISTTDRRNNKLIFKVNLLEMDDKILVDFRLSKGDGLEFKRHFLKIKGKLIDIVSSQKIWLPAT
Description: Inhibition of CHK1 (unknown origin) using peptide substrate S1 and ATP as substrate incubated for 1 hr by HTRF assay

[4] = biological target: hERG (KCNH2) (Homo sapiens, UniProt Q12809); assay: Inhibition of hERG expressed in HEK293 cells at 20 uM by whole cell patch clamp analysis; format: toxicity, cell-based; settings: HEK293 cells expressing hERG
Sequence of hERG (KCNH2) (Q12809 whole entry): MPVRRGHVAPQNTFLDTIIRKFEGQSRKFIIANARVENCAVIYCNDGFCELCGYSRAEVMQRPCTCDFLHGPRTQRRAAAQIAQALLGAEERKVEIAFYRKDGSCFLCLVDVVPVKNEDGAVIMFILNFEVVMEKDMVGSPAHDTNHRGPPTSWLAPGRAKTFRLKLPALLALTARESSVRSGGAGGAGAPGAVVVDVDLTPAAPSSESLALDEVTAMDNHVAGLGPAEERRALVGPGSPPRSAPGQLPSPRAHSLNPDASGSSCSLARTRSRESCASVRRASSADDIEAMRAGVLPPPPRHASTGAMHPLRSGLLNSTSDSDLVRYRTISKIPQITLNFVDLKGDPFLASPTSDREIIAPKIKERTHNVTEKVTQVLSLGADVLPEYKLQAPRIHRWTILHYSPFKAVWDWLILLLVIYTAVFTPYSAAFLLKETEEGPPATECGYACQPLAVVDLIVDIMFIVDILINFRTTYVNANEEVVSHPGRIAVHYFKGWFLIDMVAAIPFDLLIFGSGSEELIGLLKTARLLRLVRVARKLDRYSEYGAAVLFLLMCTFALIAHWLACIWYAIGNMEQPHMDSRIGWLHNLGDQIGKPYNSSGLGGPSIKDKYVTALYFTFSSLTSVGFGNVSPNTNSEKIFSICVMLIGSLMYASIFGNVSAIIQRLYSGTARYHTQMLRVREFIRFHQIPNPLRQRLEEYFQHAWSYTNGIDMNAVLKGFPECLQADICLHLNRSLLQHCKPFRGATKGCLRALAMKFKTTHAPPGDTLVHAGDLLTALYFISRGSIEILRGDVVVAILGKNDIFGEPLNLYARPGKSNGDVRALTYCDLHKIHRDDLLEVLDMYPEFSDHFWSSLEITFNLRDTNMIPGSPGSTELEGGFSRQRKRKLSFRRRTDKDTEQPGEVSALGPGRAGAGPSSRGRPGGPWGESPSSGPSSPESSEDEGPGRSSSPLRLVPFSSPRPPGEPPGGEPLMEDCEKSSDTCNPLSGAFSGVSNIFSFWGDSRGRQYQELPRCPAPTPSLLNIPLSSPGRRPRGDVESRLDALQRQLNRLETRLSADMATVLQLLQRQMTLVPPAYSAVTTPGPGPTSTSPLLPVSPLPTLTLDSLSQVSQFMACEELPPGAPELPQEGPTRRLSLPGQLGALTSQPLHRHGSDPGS

[5] = Selectivity ratio of IC50 for inhibition of c-KIT (unknown origin) to IC50 for inhibition of FLT3 D835Y mutant (unknown origin)
[6] = biological target: Mast/stem cell growth factor receptor Kit (Homo sapiens, UniProt P10721); assay: Inhibition of c-KIT (unknown origin) using peptide substrate TK-S and ATP as substrate incubated for 1 hr by HTRF assay; format: toxicity
Sequence of Mast/stem cell growth factor receptor Kit (P10721 whole entry): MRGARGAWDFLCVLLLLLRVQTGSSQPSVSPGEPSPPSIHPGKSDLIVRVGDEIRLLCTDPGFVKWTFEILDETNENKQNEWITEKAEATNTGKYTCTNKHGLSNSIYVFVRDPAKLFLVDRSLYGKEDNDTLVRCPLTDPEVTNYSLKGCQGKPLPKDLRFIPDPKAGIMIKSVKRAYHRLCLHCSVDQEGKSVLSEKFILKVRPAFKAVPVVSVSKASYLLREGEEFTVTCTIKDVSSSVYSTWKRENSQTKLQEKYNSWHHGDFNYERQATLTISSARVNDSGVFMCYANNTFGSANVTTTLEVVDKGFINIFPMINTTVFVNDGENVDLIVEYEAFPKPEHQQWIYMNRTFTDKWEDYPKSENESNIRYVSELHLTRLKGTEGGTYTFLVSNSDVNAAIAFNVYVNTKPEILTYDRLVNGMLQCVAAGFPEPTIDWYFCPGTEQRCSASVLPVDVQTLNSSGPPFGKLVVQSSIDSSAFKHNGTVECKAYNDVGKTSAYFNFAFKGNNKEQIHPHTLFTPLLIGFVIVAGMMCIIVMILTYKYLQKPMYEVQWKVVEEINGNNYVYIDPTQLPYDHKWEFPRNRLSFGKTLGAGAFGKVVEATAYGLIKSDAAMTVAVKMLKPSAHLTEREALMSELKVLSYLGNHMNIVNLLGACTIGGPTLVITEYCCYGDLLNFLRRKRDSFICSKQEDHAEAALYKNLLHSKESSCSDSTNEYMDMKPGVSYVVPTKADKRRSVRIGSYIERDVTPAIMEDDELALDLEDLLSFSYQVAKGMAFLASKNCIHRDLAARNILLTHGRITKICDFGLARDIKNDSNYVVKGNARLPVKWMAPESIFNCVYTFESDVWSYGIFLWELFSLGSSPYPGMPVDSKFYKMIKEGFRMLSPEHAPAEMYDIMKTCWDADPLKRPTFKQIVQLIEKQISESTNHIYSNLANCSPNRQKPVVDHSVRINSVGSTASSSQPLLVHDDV

[7] = tested on: BaF3; assay: Antiproliferative activity against mouse BaF3 cells harboring FLT3 D835F mutant assessed as reduction in cell viability incubated for 72 hrs by CellTiter 96 Aqueous One Solution Cell Proliferation Assay; format: functional, cell-based
[8] = tested on: BaF3; assay: Antiproliferative activity against mouse BaF3 cells harboring FLT3 F691L mutant assessed as reduction in cell viability incubated for 72 hrs by CellTiter 96 Aqueous One Solution Cell Proliferation Assay; format: functional, cell-based
[9] = tested on: BaF3; assay: Antiproliferative activity against mouse BaF3 cells harboring FLT3 D835V mutant assessed as reduction in cell viability incubated for 72 hrs by CellTiter 96 Aqueous One Solution Cell Proliferation Assay; format: functional, cell-based

Q: What does the source list for `CNCCCNc1nc(Nc2ccc3c(c2)CCN(C(=O)CC(C)(C)O)C3)ncc1C(F)(F)F`?
A: IC50 [1]: 14.2 nM; IC50 [2]: 27.3 nM; IC50 [3]: 61.6 nM

Q: For `CC(C)(O)CC(=O)N1CCc2cc(Nc3ncc(C(F)(F)F)c(NCC4CCNCC4)n3)ccc2C1`, which IC50 [1] is on record?
A: 6.79 nM

Q: And the IC50 [2]?
A: 10.4 nM

Q: What about the IC50 [3] of the same compound?
A: 87.3 nM

Q: What does the source list for `CC(C)(O)CC(=O)N1CCc2cc(Nc3ncc(C(F)(F)F)c(NC4CCNCC4)n3)ccc2C1`?
A: IC50 [1]: 22.4 nM; IC50 [2]: 40.9 nM; IC50 [3]: 227 nM

Q: With `CC(C)(O)CC(=O)N1CCc2cc(Nc3ncc(C(F)(F)F)c(N[C@@H]4CCCC[C@@H]4N)n3)ccc2C1` as the compound, how does the IC50 [2] read?
A: 224 nM

Q: And the IC50 [3]?
A: 1970 nM

Q: For `CC(C)(O)CC(=O)N1CCc2nc(Nc3ncc(C(F)(F)F)c(N[C@H]4CC[C@@H](N)CC4)n3)ccc2C1`, which IC50 [1] is on record?
A: 21.4 nM

Q: And the IC50 [2]?
A: 77.1 nM

Q: What about the IC50 [3] of the same compound?
A: 362 nM

Q: For `Cn1cnc2cc(Nc3ncc(C(F)(F)F)c(N[C@H]4CC[C@@H](N)CC4)n3)ccc2c1=O`, which IC50 [1] is on record?
A: 1.77 nM

Q: And the inhibition at 20 µM [4]?
A: 48.3%

Q: What about the IC50 [2] of the same compound?
A: 8.8 nM

Q: What about the IC50 [3] of the same compound?
A: 223 nM

Q: Which IC50 [1] does the source give for `CC(C)(N)CCNc1nc(Nc2ccc3c(c2)CCN(C(=O)CC(C)(C)O)C3)ncc1C(F)(F)F` here?
A: 0.62 nM

Q: And the inhibition at 20 µM [4]?
A: 31.9%

Q: And the IC50 [2]?
A: 3.32 nM

Q: What about the IC50 [3] of the same compound?
A: 219 nM

Q: Which inhibition at 20 µM [4] does the source give for `Cn1ccc2cc(Nc3ncc(C(F)(F)F)c(N[C@H]4CC[C@@H](N)CC4)n3)ccc2c1=O` here?
A: 75.9%

Q: And the IC50 [3]?
A: 26.3 nM

Q: For `CC(=O)NCCCNc1nc(Nc2ccc3c(c2)CCN(C(=O)CC(C)(C)O)C3)ncc1C(F)(F)F`, which IC50 [1] is on record?
A: 44.5 nM

Q: What about the IC50 [2] of the same compound?
A: 16.1 nM

Q: And the IC50 [3]?
A: 765 nM

Q: For `CC(C)(N)CNc1nc(Nc2ccc3c(c2)CCN(C(=O)CC(C)(C)O)C3)ncc1C(F)(F)F`, which IC50 [1] is on record?
A: 39.7 nM

Q: What about the IC50 [2] of the same compound?
A: 166 nM

Q: What about the IC50 [3] of the same compound?
A: 2000 nM

Q: For `CC(C)(O)C(=O)N1CCc2cc(Nc3ncc(C(F)(F)F)c(N[C@H]4CC[C@@H](N)CC4)n3)ccc2C1`, which Ratio IC50 [5] is on record?
A: 589

Q: And the IC50 [1]?
A: 0.38 nM

Q: What about the inhibition at 20 µM [4] of the same compound?
A: 17.7%

Q: And the IC50 [2]?
A: 1.53 nM

Q: And the IC50 [6]?
A: 902 nM

Q: What about the IC50 [3] of the same compound?
A: 8.6 nM

Q: For `CC(=O)N1CCc2nc(Nc3ncc(C(F)(F)F)c(N[C@H]4CC[C@@H](N)CC4)n3)ccc2C1`, which IC50 [1] is on record?
A: 1.45 nM

Q: What about the IC50 [2] of the same compound?
A: 61.4 nM

Q: And the IC50 [3]?
A: 301 nM

Q: Which IC50 [1] does the source give for `CC(C)(O)CC(=O)N1CCc2cc(Nc3ncc(C(F)(F)F)c(N[C@H]4CC[C@H](N)CC4)n3)ccc2C1` here?
A: 5.89 nM

Q: And the IC50 [2]?
A: 12 nM

Q: And the IC50 [3]?
A: 96 nM

Q: Which Ratio IC50 [5] does the source give for `CC(C)(O)CC(=O)N1CCc2ccc(Nc3ncc(C(F)(F)F)c(N[C@H]4CC[C@@H](N)CC4)n3)cc2C1` here?
A: 1820

Q: What about the IC50 [1] of the same compound?
A: 0.44 nM

Q: And the inhibition at 20 µM [4]?
A: 43.9%

Q: And the IC50 [2]?
A: 2.11 nM

Q: And the Activity [7]?
A: Active

Q: And the IC50 [6]?
A: 3840 nM

Q: What about the Activity [8] of the same compound?
A: Active

Q: And the Activity [9]?
A: Active

Q: And the IC50 [3]?
A: 9.9 nM

Q: What does the source list for `CC(=O)N1CCc2ccc(Nc3ncc(C(F)(F)F)c(N[C@H]4CC[C@@H](N)CC4)n3)cc21`?
A: IC50 [1]: 36 nM; IC50 [2]: 9.84 nM; IC50 [3]: 58 nM

Q: Which IC50 [1] does the source give for `CC(C)(O)CC(=O)N1CCc2cc(Nc3ncc(C(F)(F)F)c(NCCCCN)n3)ccc2C1` here?
A: 0.61 nM

Q: What about the IC50 [2] of the same compound?
A: 1.5 nM

Q: What about the IC50 [3] of the same compound?
A: 41.1 nM

Q: What does the source list for `CC(C)(O)CC(=O)N1CCc2cc(Nc3ncc(C(F)(F)F)c(N[C@H]4CCCC[C@H]4N)n3)ccc2C1`?
A: IC50 [2]: 1450 nM; IC50 [3]: > 10000 nM

Q: Which IC50 [1] does the source give for `CC(C)(O)CC(=O)N1CCc2cc(Nc3ncc(C(F)(F)F)c(NCCCCCN)n3)ccc2C1` here?
A: 12.7 nM

Q: What about the IC50 [2] of the same compound?
A: 3.19 nM

Q: What about the IC50 [3] of the same compound?
A: 159 nM

Q: For `CC(C)(O)Cn1ccc2cc(Nc3ncc(C(F)(F)F)c(NC4CC5(CNC5)C4)n3)ccc2c1=O`, which IC50 [1] is on record?
A: 66.2 nM

Q: What about the IC50 [2] of the same compound?
A: 26.6 nM

Q: And the IC50 [3]?
A: 80.1 nM

Q: What does the source list for `CC(C)(O)CC(=O)N1CCc2cc(Nc3ncc(C(F)(F)F)c(NCCN)n3)ccc2C1`?
A: IC50 [2]: 38.2 nM; IC50 [3]: 135 nM

Q: With `CC(C)(O)C(=O)N1CCc2nc(Nc3ncc(C(F)(F)F)c(N[C@H]4CC[C@@H](N)CC4)n3)ccc2C1` as the compound, how does the IC50 [1] read?
A: 9.51 nM

Q: What about the IC50 [2] of the same compound?
A: 55.4 nM

Q: And the IC50 [3]?
A: 250 nM

Q: Which results are given for `CC(C)(O)CC(=O)N1CCc2cc(Nc3ncc(C(F)(F)F)c(NCC(C)(C)CN)n3)ccc2C1`?
A: IC50 [1]: 27.9 nM; IC50 [2]: 91.4 nM; IC50 [3]: 1060 nM
